Literature values in PMC8170883 (Viruses, 2021).

Key:
SARS-Cov-2 = details: cell cultures
SARS-CoV-2 nsp12 (RdRp) = details: blocks binding of RNA to the enzyme

Structure (SMILES)	Antiviral effect against SARS-CoV-2 (SARS-Cov-2)	Inhibition of RdRp (SARS-CoV-2 nsp12 (RdRp))
CCN(CC)CCCC(C)Nc1ccnc2cc(Cl)ccc12 (stereo not shown) [Chloroquine, chloroquine]	antiviral effects	–
CCN(CC)CCCC(C)Nc1c2ccc(Cl)cc2nc2ccc(OC)cc12 (stereo not shown) [Quinacrine, quinacrine]	antiviral effects	–
Cc1ccc(C(=O)Nc2ccc(S(=O)(=O)O)c3cc(S(=O)(=O)O)cc(S(=O)(=O)O)c23)cc1NC(=O)c1cccc(NC(=O)Nc2cccc(C(=O)Nc3cc(C(=O)Nc4ccc(S(=O)(=O)O)c5cc(S(=O)(=O)O)cc(S(=O)(=O)O)c45)ccc3C)c2)c1 [Suramin]	antiviral effects	potent inhibitor
